Assay results: patent US20250312289A1, “METHODS AND COMPOSITIONS COMPRISING TOBACCO MILD GREEN MOSAIC VIRUS (TMGMV)” (priority 2022, published 2025)

Key:
TMGMV [1] = test: Quantification of loaded AI in TMGMV by HPLC; format: physicochemical, Tobacco Mild Green Mosaic Virus; details: for Detected in sample / Molecules per CP / Molecules per virion: HPLC
Procedure: (§1) Loading of AI into TMGMV via the “pH method” was performed. TMGMV at a concentration of 1 mg mL^−1 in 10 mM KP buffer at pH 7.5 was kept for 10 days at 4° C. The following AIs were used: fluopyram and clothianidin, (BASF, Berkeley, CA, USA), rifampicin and ivermectin (BioVision; Milpitas, CA, USA). Cy5 (Lumiprobe; Cockeysville, MD, USA) and doxorubicin (ApexBio; Houston, TX, USA) were also studied as proof of concept (fluorescent molecule and cancer chemotherapy). The AI was added to TMGMV by adding an excess of 10:1 AI:coat protein (CP; each TMGMV rod is assembled from ˜2,100 identical CPs) every day until a ratio of 100:1 was reached. During this process the reaction was kept mixing on a rotary shaker. 1 mL aliquots were obtained each day for further analysis.
After AI loading, the aliquots were spin-filtered using 100K molecular weight cut-off 0.5 mL filters (MilliporeSigma, Burlington, MA, USA). 200 μL of the aliquot and 250 μL of KP solution were added and then centrifuged at 16,160×g for 5 minutes at 4° C., the flow-through was discarded, and then 450 μL of KP was added and centrifuged again, this step was repeated 3 times. After the third centrifugation, the filter was inverted in a new tube and centrifuged at 1000×g for 2 minutes, to recover the supernatant and carry out the subsequent characterization.
(§2) Loading of AI into TMGMV via the “DMSO method” was performed. TMGMV in 10 mM KP buffer (pH 7.2) was diluted to 5 mg mL-1 in 2 mL of buffer and transferred to a 25 mL beaker and magnetically stirred at 300 rpm at room temperature. A solution of DMSO and 10 mM KP was added dropwise to dilute the solution to a 20% (v/v) concentration of DMSO and 2 mg mL-1 of TMGMV. Aliquots of the AIs were added dropwise to the solution to prevent precipitation. The solutions were left to stir at room temperature for 24 hours. The samples were collected and spin filtered as described above before being stored at 4° C.
For HPLC, AI was extracted from TMGMV. In brief, the concentration of TMGMV samples was adjusted to 1.2 mg mL-1 in KP. The solution was diluted 4-fold into a 1:1 acetonitrile/:methanol mixture and vortexed for 30 seconds. The solution was centrifuged at 10,000×g for 10 minutes at 4° C. and the organic phase (bottom fraction) was collected and transferred to an HPLC 2 mL glass screw top vial (SureSTART, Thermo Scientific, Waltham, MA, USA).
After a 10-fold dilution in acetonitrile, the extracted samples were injected at 500 μL and run on 5 μm C18 column (20×100 mm) using a Shimadzu LC-40 HPLC system (Columbia, MD, USA). The method was run at 0.5 mL min-1 in a gradient of acetonitrile and 0.02% (v/v) phosphoric acid for 15 minutes per sample. A photodiode array was used to collect absorbance values at 280 nm (fluopyram), 269 nm (clothianidin), 225 nm (ivermectin), and 330 nm (rifampicin). The absorbance values were fitted to a standard curve to identify sample concentration with N=3.

β-CD-TMGMV = test: Doxorubicin competition (displacement) assay for loading onto β-CD-TMGMV; format: binding; details: competitor at 1000 eq, overnight at 4° C.
Procedure: To assess loading of pesticides to β-CD-TMGMV, competition assays were completed between Doxorubicin (ApexBio) and the target molecules. Samples of 100 μL volume were prepared in a 96-well plate (Costar). For sample wells, 0.0825 mg of β-CD-conjugated TMGMV in KP buffer were added to the wells, in addition with doxorubicin at 10 eqβ-CD-TMIGMV (molar equivalents to β-CD-conjugated TMGMV).
Three control conditions were utilized: 1 eq TMGMV, 575 eq β-CD, and 1 eq TMGMV with 575 eq β-CD (non-conjugated). These control wells also received doxorubicin at 10 eq. The plate was incubated overnight at 4° C. on a plate rocker (Fisher). Fluorescence top readings were conducted on the plate (excitation 470 nm, emission 595 nm, 25 flashes) via UV-Vis Plate Reader (Tecan infinite 200Pro). […] Following a repeat overnight incubation at 4° C. on a plate rocker (Fisher), fluorescent reading was repeated as before.
Samples of 100 μL volume were prepared in a 96-well plate (Costar). For sample wells, 0.0825 mg of β-CD-conjugated TMGMV in KP buffer were added to the wells, in addition with doxorubicin at 10 eq (molar equivalents to β-CD-conjugated TMGMV). […] Fluorescence top readings were then conducted on the plate (excitation 470 nm, emission 595 nm, 25 flashes) via UV-Vis Plate Reader (Tecan infinite 200Pro). […] The fluorescence was then read on the plate reader as described before. […]

[2] = cited from earlier work
TMGMV [3] = test: TEM/ImageJ width of TMGMV infused with AI by partial dissociation (breathing), Example 3; format: physicochemical, Tobacco Mild Green Mosaic Virus; details: pH 7.5, 5 days, 500:1 equivalence ratio; TEM; control 18 nm
Procedure: TMGMV at a concentration of 5 mg mL^−1 in KP buffer at pH 7.5 was kept for 5 days at 4° C. Addition of the target AI to the solution was done every 24 h until reaching a 500:1 equivalence ratio and left mixing on a rotary shaker. Afterwards, the solution was centrifuged at 50,000 rpm in the tabletop ultracentrifuge (Beckman Optima MAX-XP with TLA-55 rotor) for 1 hour on a sucrose cushion (30% w/v). The viral pellet was then resuspended in 10 mM KP pH 7 overnight at 4° C. on a rotary shaker. After total resuspension, the solution was dialyzed for 48 h to remove excess (non-entrapped) AI.
Samples were diluted to the concentration of 0.05 mg mL^−1 and absorbed onto carbon-coated TEM grids (Electron Microscopy Sciences). The grids were then washed three times with pure water. Then, grids were stained by 2% (w/v) uranyl acetate for 2 min for imaging. TEM was conducted using a FEI Tecnai F30 transmission electron microscope operated at 300 kV.
Experiments were conducted to load pesticides into TMGMV by strategically altering the pH. Without being bound by theory, this entraps Als through the formation of “pockets” between coat proteins (CPs). Without being bound by theory, the rationale is that by increasing the pH of the buffer, the virus will start to dissociate and hydrophobic pockets will get created between the virion's coat proteins. AIs are then added to interact with the virus particles and then the pH is decreased to promote particles' self-assembly and entrapment of AI on the hydrophobic pockets (see schematic of FIG. 7). As discussed above, TMGMV at a concentration of 5 mg mL-1 in KP buffer at pH 7.5 was kept for at 4° C. for 5 days, and the target AI was added to the solution every 24 h until reaching a 500:1 equivalence ratio. Afterwards, the solution was centrifuged at 50,000 rpm for 1 hour on a sucrose cushion (30% w/v). The viral pellet was then resuspended in 10 mM KP pH 7 overnight at 4° C., and after total resuspension, the solution was dialyzed for 48 h to remove excess (non-entrapped) AI. Samples were then observed at TEM and analyzed using ImageJ.
To determine the change in width (breathing/infusion) of the nanoparticles, the width of sections of 100 nm in length of nanoparticles (as shown in the micrography of FIG. 8) was measured. This was done to standardize the measurements and determine the change in width. At least 5 different sections were measured per micrography, and at least 30 sections were measured in total per sample.

TMGMV [4] = test: Quantitative TEM width analysis of AI-loaded TMGMV prepared via pH and DMSO methods, Example 6; format: physicochemical, Tobacco Mild Green Mosaic Virus; details: negative-stain TEM, native 15.7 nm; for maximum width of AI-loaded TMGMV: pH and DMSO methods
Procedure: as §1, §2
TMGMV samples were diluted to a concentration of 0.05 mg mL-1 and absorbed onto carbon-coated TEM grids (Electron Microscopy Sciences, Hatfield, PA, USA). The grids were then washed three times with pure water. Then, grids were stained by 2% (w/v) uranyl acetate for 90 seconds. TEM was conducted using a FEI Tecnai F30 transmission electron microscope operated at 300 kV. Image analysis was performed using ImageJ software (https://imagej.nih.gov/ij/download.html). To determine the change in width of the nanoparticles, the width of sections of 100 nm in length was measured for standardization purposes. Five different sections were measured per micrography and 30 of them in total per sample. Subsequently, for the complete particle, the length, the perimeter and the area were measured, to later calculate the average width from the perimeter.
TEM imaging and quantitative TEM imaging analysis of the AI-loaded TMGMV nanoparticles prepared by the pH method and the DMSO method was performed. […] To gain insights into the degree of structural changes, quantitative TEM image analysis was performed comparing native vs. the AI-laden TMGMV. Based on the negative stain, native virions were 15.7 nm in width in average (±1.9 nm), which is an underestimation to native TMGMV of 18 nm. This may be due to the uranyl acetate negative staining yielding a heavy shadow on the borders of the virion, apparently reducing its width. While there was no statistical significance between the controls that underwent both methodologies (FIG. 27), for each compound the increment (in comparison to native TMGMV) was different, as well as between methodologies (FIG. 17A).

TMGMV [5] = test: Size exclusion chromatography with absorbance (Beer-Lambert) loading determination; format: physicochemical, Tobacco Mild Green Mosaic Virus; details: SEC absorbance 480 nm / 647 nm, Beer-Lambert law
Procedure: TMGMV samples (500 μL at 0.5 mg/mL) were analyzed using a Superose6 Increase 100 GL column and an AKTA Pure25 chromatography system (GE Healthcare, Chicago, Il, USA) using a flow rate 0.5 mL/min in 10 mM KP (pH 7.4). […]
Size exclusion chromatography (SEC) was performed to further verify structural integrity of the AI-laden TMGMV particles during post-processing and purification.

[6] = DMSO method (20% v/v, 24 hours)

| Compound | less loading using DMSO method vs pH method (TMGMV [1]; 24 hour DMSO vs 10-day pH) | Detected in sample (TMGMV [1]; [6]) [µg/mL] | Molecules per CP (TMGMV [1]; [6]) | Molecules per virion (TMGMV [1]; [6]) | Detected in sample (TMGMV [1]; pH method (pH 7.5, 10 days)) [µg/mL] | Molecules per CP (TMGMV [1]; pH method (pH 7.5, 10 days)) | Molecules per virion (TMGMV [1]; pH method (pH 7.5, 10 days)) | doxorubicin initially bound to β-CD-TMGMV displaced (β-CD-TMGMV) [%] | logP [2] | average width of infused TMGMV (TMGMV [3]) [nm] | increase in width vs native TMGMV control (TMGMV [3]) [%] | width increase compared to negatively-stained native TMGMV (TMGMV [4]) [%] | loading, molecules per TMGMV (TMGMV [5]) | increase in loading using DMSO method vs pH method (TMGMV [1]; 24 hour DMSO vs 10-day pH) [fold] | maximum width of AI-loaded TMGMV (TMGMV [4]) [nm] |
| --- | --- | --- | --- | --- | --- | --- | --- | --- | --- | --- | --- | --- | --- | --- | --- |
| CN/C(=N\[N+](=O)[O-])NCc1cnc(Cl)s1 [Clothianidin, clothianidin] | about 10% | 2.06 | 0.47 | 995 | 2.29 | 0.52 | 1107.55 | 17.60 | 1.3 | 26 | 38 | 65 |  |  |  |
| COc1cccc2c1C(=O)c1c(O)c3c(c(O)c1C2=O)C[C@@](O)(C(=O)CO)C[C@@H]3O[C@H]1C[C@H](N)[C@H](O)[C@H](C)O1 [Doxorubicin, doxorubicin] |  |  |  |  |  |  |  |  | 0.02 | 35 | 89 |  | ~615 |  |  |
| O=C(NCCc1ncc(C(F)(F)F)cc1Cl)c1ccccc1C(F)(F)F [Fluopyram, fluopyram] |  | 0.61 | 0.087 | 185.59 | 0.05 | 0.007 |  | 18.34 | 3.33 | 22 | 21 | 14 |  | 11.7 | 18 |
| CO[C@H]1/C=C/O[C@@]2(C)Oc3c(C)c(O)c4c(O)c(c(/C=N/N5CCN(C)CC5)c(O)c4c3C2=O)NC(=O)/C(C)=C\C=C\[C@H](C)[C@H](O)[C@@H](C)[C@@H](O)[C@@H](C)[C@H](OC(C)=O)[C@@H]1C [Rifampicin, rifampicin] |  |  |  |  |  |  |  |  | 2.4 |  |  |  |  |  |  |
| cyanine5 [Cyanine 5] |  |  |  |  |  |  |  |  | 3.84 |  |  |  | ~80 |  |  |
| ivermectin |  | 0.44 | 0.029 | 61.63 | 0.02 | 0.001 | 2.89 |  | 4.4 |  |  | 46 |  | 21.3 | 23 |
